Experimental data published in patent US9765075B2, “Substituted bridged urea analogs as sirtuin modulators” (GLAXOSMITHKLINE LLC, priority 2013, dated 2017).

Tests used:
SIRT1 = biological target: T1, SIRT1 (Homo sapiens, UniProt Q96EB6); test: Trp mass spectrometry assay (SIRT1 activation); type: biochemical; conditions: Trp mass spectrometry assay; for Tryp AVG EC1.5 (μM): EC1.5 = concentration giving 150% activation of SIRT1; for Emax: percent maximum fold activation of SIRT1, read-out: Tryp % Fold Act
T1 sequence (Q96EB6 1-747): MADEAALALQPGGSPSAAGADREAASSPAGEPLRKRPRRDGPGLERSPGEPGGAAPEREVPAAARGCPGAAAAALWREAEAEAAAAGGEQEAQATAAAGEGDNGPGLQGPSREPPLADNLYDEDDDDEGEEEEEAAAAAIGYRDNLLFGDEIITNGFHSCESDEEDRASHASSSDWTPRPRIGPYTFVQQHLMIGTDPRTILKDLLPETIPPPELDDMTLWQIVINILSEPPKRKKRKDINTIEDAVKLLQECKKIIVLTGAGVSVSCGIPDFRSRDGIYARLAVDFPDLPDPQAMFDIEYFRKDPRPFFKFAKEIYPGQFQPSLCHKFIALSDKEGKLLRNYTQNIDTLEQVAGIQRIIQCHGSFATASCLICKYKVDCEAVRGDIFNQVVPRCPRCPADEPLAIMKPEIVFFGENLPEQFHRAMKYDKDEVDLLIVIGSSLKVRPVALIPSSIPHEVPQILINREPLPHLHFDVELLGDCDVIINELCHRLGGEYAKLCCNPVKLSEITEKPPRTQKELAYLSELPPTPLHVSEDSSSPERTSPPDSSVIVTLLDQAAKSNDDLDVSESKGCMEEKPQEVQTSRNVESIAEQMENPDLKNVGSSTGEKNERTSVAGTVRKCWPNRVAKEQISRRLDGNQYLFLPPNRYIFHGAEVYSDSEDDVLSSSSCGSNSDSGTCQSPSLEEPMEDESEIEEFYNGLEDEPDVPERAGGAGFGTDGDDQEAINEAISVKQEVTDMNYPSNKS
Outline: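 Activation is expressed as EC1.5, the concentration raising activity 50% above DMSO control, and as maximum percent of control. Mass-spec readout was OAADPR or deacetylated Trp peptide after a formic-acid-quenched 25-min, 25 °C reaction: 10 nM bacterially expressed His-SIRT1, 0.5 μM acetyl-p53-derived peptide, 120 μM NAD+, pH 7.5 HEPES with […].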

mini-hSIRT1 = test: Inhibition of mini-hSIRT1 constructs compared with the full-length enzyme; type: biochemical, human
Procedure: Final concentrations of the PNC1/GDH coupling system components used were 20 units/mL bovine GDH (Sigma-Aldrich), 1 uM yeast PNC1, 3.4 mM α-ketoglutarate, and 220 μM NADH or NADPH. An extinction coefficient of 6.22 mM^−1 cm^−1 and a pathlength of 0.81 cm was used to convert the absorbance at 340 nm to product concentration for the 150 uL reactions used. […] Quenched reactions were diluted 5-fold with 1:1 acetonitrile:methanol and spun at 5,000×g for 10 minutes to precipitate protein before being analyzed with an Agilent RapidFire 200 High-Throughput Mass Spectrometry System (Agilent, Wakefield, Mass.) coupled to an ABSciex API 4000 mass spectrometer fitted with an electrospray ionization source. The p53-based Ac-p53(W5) (Ac-RHKK^AcW-NH2) and FOXO-3a 21-mer (Ac-[…]^Ac[…]-NH2) peptides were obtained from Biopeptide, Inc. Deacetylation assays used the Ac-p53(W5) substrate unless otherwise noted.
Substrate KM determinations were performed by varying one substrate concentration at a fixed, saturating concentration of the second substrate. SIRT1 activation and inhibition assays were run in reaction buffer with 0.05% BSA at 25° C. and analyzed using the OAcADPr assay. Enzyme and compound were pre-incubated for 20 minutes before addition of substrates. […]

Structure (SMILES)	Tryp AVG EC1.5 (μM) (SIRT1)	Emax (SIRT1)	IC50 values, mini-hSIRT1 constructs versus full-length enzyme (mini-hSIRT1)
CC(C)(C)OC(=O)NCC#Cc1cc(NC(=O)N2c3nc(-c4cccc(C(F)(F)F)c4)ccc3N3CCC[C@H]2C3)cc(-c2cnco2)c1 [Example 760]	A (EC1.5<1 μM)	≥ 150%	
FC(F)(F)c1cccc(-c2ccc3c(n2)N(C(=S)Nc2cccc(-c4cnco4)c2)[C@H]2CCN3C2)c1 [Example 763]	A (EC1.5<1 μM)	≥ 150%	
NCCCc1ccc(NC(=O)N2c3nc(-c4cccc(C(F)(F)F)c4)ccc3N3CCC[C@H]2C3)cc1-c1cnco1 [Example 767]	A (EC1.5<1 μM)	≥ 150%	
N=C(N)NCc1ccc(NC(=O)N2c3nc(-c4cccc(C(F)(F)F)c4)ccc3N3CCC[C@H]2C3)cc1 [Example 777]	A (EC1.5<1 μM)	≥ 150%	
C[C@@H](N)CS(=O)(=O)c1cccc(-c2ccc3c(n2)N(C(=O)Nc2cc(-c4ccnn4C)nc(-c4ccnn4C)c2)[C@H]2CCN3C2)c1 [Example 780]	A (EC1.5<1 μM)	≥ 150%	
O=C(Nc1ccccn1)N1c2cc(-c3cccc(C(F)(F)F)c3)ccc2N2CC[C@H]1C2 [Example 785]	C (EC1.5>25 μM)	< 150%	
O=C(Nc1cccc(-c2cnco2)c1)N1c2cc(-c3cccc(C(F)(F)F)c3)ccc2N2CC[C@H]1C2 [Example 786]	B (EC1.5 1-25 μM)	≥ 150%	
CC(C)(C)OC(=O)NCCNC(=N)c1ccc(NC(=O)N2c3nc(-c4cccc(C(F)(F)F)c4)ccc3N3CCC[C@H]2C3)cc1 [Example 788]	A (EC1.5<1 μM)	≥ 150%	
CC(=O)NCc1ccc(NC(=O)N2c3nc(-c4cccc(C(F)(F)F)c4)ccc3N3CCC[C@H]2C3)cc1 [Example 790]	A (EC1.5<1 μM)	≥ 150%	
N=C(NCCN)c1ccc(NC(=O)N2c3nc(-c4cccc(C(F)(F)F)c4)ccc3N3CCC[C@H]2C3)cc1 [Example 792]	A (EC1.5<1 μM)	≥ 150%	
CC(C)(C)OC(=O)NCc1ccc(NC(=O)N2c3nc(-c4cccc(C(F)(F)F)c4)ccc3N3CC[C@H]2C3)cc1 [Example 793]	B (EC1.5 1-25 μM)	≥ 150%	
CC(C)(C)OC(=O)NCc1cccc(-c2ccc3c(n2)C(C(=O)Nc2ccncc2)[C@H]2CCN3C2)c1 (stereo partly drawn) [Example 794]	B (EC1.5 1-25 μM)	≥ 150%	
CC(C)(C)OC(=O)NCc1cccc(-c2ccc3c(n2)N(C(=O)Nc2ccncc2)[C@H]2CCCN3C2)c1 [Example 795]	B (EC1.5 1-25 μM)	≥ 150%	
O=C(NCc1ccc(NC(=O)N2c3nc(-c4cccc(C(F)(F)F)c4)ccc3N3CC[C@H]2C3)cc1)OC[C@@H]1[C@@H]2CCC#CCC[C@@H]21 [Example 796]	B (EC1.5 1-25 μM)	≥ 150%	
[N-]=[N+]=NCC(=O)NCc1ccc(NC(=O)N2c3nc(-c4cccc(C(F)(F)F)c4)ccc3N3CC[C@H]2C3)cc1 [Example 799]	A (EC1.5<1 μM)	≥ 150%	
[N-]=[N+]=NCc1cc(N=[N+]=[N-])cc(-c2ccc3c(n2)N(C(=O)Nc2ccc(F)cn2)[C@H]2CCN3C2)c1 [Example 806]	A (EC1.5<1 μM)	≥ 150%	
[N-]=[N+]=NCc1cc(N=[N+]=[N-])cc(-c2ccc3c(n2)N(C(=O)Nc2cnccn2)[C@H]2CCN3C2)c1 [Example 808]	A (EC1.5<1 μM)	≥ 150%	
O=C(Nc1ccccn1)N1c2nc(-c3cccc(C(F)(F)F)c3)ccc2N2CCC[C@H]1C2 [Example 820]	A (EC1.5<1 μM)	≥ 150%	
O=C(Nc1cccnn1)N1c2nc(-c3cccc(Cl)c3)ccc2N2CC[C@H]1C2 [Example 822]	A (EC1.5<1 μM)	≥ 150%	
NC(=O)c1cccnc1 [NAM, nicotinamide]			comparable

More lines, main results first:

Tryp AVG EC1.5 (μM) (SIRT1)	Emax (SIRT1)	Structure (SMILES)	IC50 values, mini-hSIRT1 constructs versus full-length enzyme (mini-hSIRT1)
A (EC1.5<1 μM)	≥ 150%	NCCCc1ccc(NC(=O)N2c3nc(-c4cccc(C(F)(F)F)c4)ccc3N3CC[C@H]2C3)cc1-c1cnco1 [Example 765]	
A (EC1.5<1 μM)	≥ 150%	NCC#Cc1ccc(NC(=O)N2c3nc(-c4cccc(C(F)(F)F)c4)ccc3N3CC[C@H]2C3)cc1-c1cnco1 [Example 766]	
A (EC1.5<1 μM)	≥ 150%	NCCCc1cc(NC(=O)N2c3nc(-c4cccc(C(F)(F)F)c4)ccc3N3CC[C@H]2C3)cc(-c2cnco2)c1 [Example 770]	
A (EC1.5<1 μM)	≥ 150%	N=C(N)NCc1ncc(-c2cccc(NC(=O)N3c4nc(-c5cccc(C(F)(F)F)c5)ccc4N4CC[C@H]3C4)c2)o1 [Example 776]	
A (EC1.5<1 μM)	≥ 150%	C#CCOc1cccc(NC(=O)N2c3nc(-c4cccc(C5(C(F)(F)F)N=N5)c4)ccc3N3CC[C@H]2C3)c1 [Example 797]	
A (EC1.5<1 μM)	≥ 150%	C#CCCCNc1nccc(NC(=O)N2c3nc(-c4cccc(C5(C(F)(F)F)N=N5)c4)ccc3N3CC[C@H]2C3)n1 [Example 798]	
C (EC1.5>25 μM)	< 150%	C#CCOc1cc(-c2ccc3c(n2)N(C(=O)Nc2cccc(C4(C(F)(F)F)N=N4)c2)[C@H]2CCN3C2)cc(C(F)(F)F)c1 [Example 800]	
B (EC1.5 1-25 μM)	≥ 150%	C#CCOc1cccc(NC(=O)N2c3nc(-c4ccc(C5(C(F)(F)F)N=N5)cc4)ccc3N3CC[C@H]2C3)c1 [Example 802]	
A (EC1.5<1 μM)	≥ 150%	C#Cc1ccc(NC(=O)N2c3nc(-c4cccc(C5(C(F)(F)F)N=N5)c4)ccc3N3CC[C@H]2C3)nc1 [Example 803]	
A (EC1.5<1 μM)	≥ 150%	C#CCNc1nccc(NC(=O)N2c3nc(-c4cccc(C5(C(F)(F)F)N=N5)c4)ccc3N3CC[C@H]2C3)n1 [Example 804]	
B (EC1.5 1-25 μM)	≥ 150%	C#CCNc1nccc(NC(=O)N2c3nc(-c4ccc(C5(C(F)(F)F)N=N5)cc4)ccc3N3CC[C@H]2C3)n1 [Example 805]	
C (EC1.5>25 μM)	< 150%	C#Cc1ccc(NC(=O)N2c3nc(-c4ccc(C5(C(F)(F)F)N=N5)cc4)ccc3N3CC[C@H]2C3)nc1 [Example 807]	
B (EC1.5 1-25 μM)	≥ 150%	C#CCNc1nccc(NC(=O)N2c3nc(-c4cccc(C5(C(F)(F)F)N=N5)c4)ccc3N3CC[C@H]2C3)n1 [Example 809]	
A (EC1.5<1 μM)	≥ 150%	O=C(Nc1ccncc1)N1c2nc(-c3cccc(C(F)(F)F)c3)ccc2N2CC[C@H]1C2 [Example 817]	
A (EC1.5<1 μM)	≥ 150%	O=C(Nc1cccc(OC[C@H](O)CO)n1)N1c2nc(-c3cccc(C(F)(F)F)c3)ccc2N2CC[C@H]1C2 [Example 818]	
A (EC1.5<1 μM)	≥ 150%	O=C(Nc1ccncc1)N1c2nc(-c3cccc(C(F)(F)F)c3)ccc2N2CCC[C@H]1C2 [Example 821]	
A (EC1.5<1 μM)	≥ 150%	O=C(Nc1ccccn1)N1c2nc(-c3cccc(C(F)(F)F)c3)ccc2N2CC[C@@H]1C2 [Example 823]	
A (EC1.5<1 μM)	≥ 150%	O=C(Nc1ccncc1)N1c2nc(-c3cccc(C(F)(F)F)c3)ccc2N2CC[C@@H]1C2 [Example 824]	
